From publication doi:10.1101/466938v1, “The distinct biochemical property enables thymidylate kinase as a drug target and participates in pyrimidine drug sensitivity in Candida albicans” (biorxiv, 2018)
In brackets after ≈: the same amount, converted by molar mass.

Assays:
[1] = test system: T1, Candida albicans F2015b076; experiment: microbe, parasite or virus in culture; parameters: species or system Candida albicans strains; CLSI M27 broth microdilution, RPMI 1640, OD600 growth, MIC at 50% inhibition; settings: F2015B076, 24 h, read-out: 5-FUrd MIC (µg/mL)
T1 construct: F2015b076
Experimental: (§1) Minimum inhibitory concentrations (MICs) of 5-FUrd were determined by broth microdilution method in accordance with the guidelines in Clinical and Laboratory Standards Institute (CLSI) document M27[25], using RPMI 1640 medium containing 0.165 M MOPs (pH 7.0) and 0.2% glucose, an inoculum of 10^3 cells/well, and incubated for 24 hr at 35°C, followed by OD600 reading by TECAN SPARK plate reader. The MIC50 of 5-FUrd was determined as the lowest dosage of 5-FUrd causing 50% inhibition of the growth by using the concentrations in the range of 0.004-2μg/mL. MICs of […] of human use (5-FC; four azoles: posaconazole, voriconazole, itraconazole, fluconazole; and three echinocandins: anidulafungin, caspofungin and micafungin) were determined by the microdilution colorimetric Sensititre YeastOne SYO-09 panel (TREK Diagnostic Systems, Cleveland, OH, USA); in accordance with the manufacturer’s instructions. MICs values were determined visually, after 24 hours of incubation, as the lowest concentration of drug that caused complete inhibition (amphotericin B) or a significant diminution (≥50% inhibition; flucytosine, azoles and echinocandins) of growth relative to that of the growth control. Table 2. Minimum inhibitory concentrations of 5-FUrd and antifungal drugs of clinical used for pathogenic and drug-resistant isolates of Candida albicans^a We further tested the 5-FUrd sensitivity of a number of pathogenic C. albicans isolates from patients. […] Because 5-FC is intracellularly metabolized to 5-FU, we asked why the 5-FC-resistant isolates remained sensitive to 5-FUrd. Several mutations in 5-FC resistant strains were identified in the enzymes involved in the formation of 5-FUMP from 5-FC, including purine-cytosine permease (Fcy2), cytosine deaminase (Fca1) and uracil phosphoribosyltransferase (Fur1). These 5-FC-resistant but 5-FUrd-sensitive strains might have mutations in these genes. 5-FUrd is transported into C. albicans through uridine permease (Fui1) and is then phosphorylated to 5-FUMP by uridine kinase (Urk1). Presumably, activation of 5-FUrd metabolism by the Fui1 and Urk1 pathways can overcome the defects in genes mediating 5-FC activation, namely, Fcy2, Fca1 and Fur1, leading to toxicity, as depicted in Fig 6. One important effect of antifungal drugs is host liver toxicity.

[2] = test system: T2, Candida albicans F2014f090; experiment: microbe, parasite or virus in culture; parameters: species or system Candida albicans strains; CLSI M27 broth microdilution, RPMI 1640, OD600 growth, MIC at 50% inhibition; settings: F2014F090, 24 h, read-out: 5-FUrd MIC (µg/mL)
T2 construct: F2014f090
Experimental: as §1

[3] = test system: T3, Candida albicans F2017g023; experiment: microbe, parasite or virus in culture; parameters: species or system Candida albicans strains; CLSI M27 broth microdilution, RPMI 1640, OD600 growth, MIC at 50% inhibition; settings: F2017G023, 24 h, read-out: 5-FUrd MIC (µg/mL)
T3 construct: F2017g023
Experimental: as §1

[4] = test system: T4, Candida albicans F2016c087; experiment: microbe, parasite or virus in culture; parameters: species or system Candida albicans strains; CLSI M27 broth microdilution, RPMI 1640, OD600 growth, MIC at 50% inhibition; settings: F2016C087, 24 h, read-out: 5-FUrd MIC (µg/mL)
T4 construct: F2016c087
Experimental: as §1

[5] = test system: T5, Candida albicans F2016e085; experiment: microbe, parasite or virus in culture; parameters: species or system Candida albicans strains; CLSI M27 broth microdilution, RPMI 1640, OD600 growth, MIC at 50% inhibition; settings: F2016E085, 24 h, read-out: 5-FUrd MIC (µg/mL)
T5 construct: F2016e085
Experimental: as §1

[6] = test system: T6, Candida albicans SC5314; experiment: microbe, parasite or virus in culture; parameters: species or system Candida albicans strains; CLSI M27 broth microdilution, RPMI 1640, OD600 growth, MIC at 50% inhibition; settings: SC5314, 24 h, read-out: 5-FUrd MIC (µg/mL)
T6 construct: SC5314
Experimental: as §1

[7] = test system: T7, Candida albicans F2014a093; experiment: microbe, parasite or virus in culture; parameters: species or system Candida albicans strains; CLSI M27 broth microdilution, RPMI 1640, OD600 growth, MIC at 50% inhibition; settings: F2014A093, 24 h, read-out: 5-FUrd MIC (µg/mL)
T7 construct: F2014a093
Experimental: as §1

[8] = test system: T8, Candida albicans F2016f024; experiment: microbe, parasite or virus in culture; parameters: species or system Candida albicans strains; CLSI M27 broth microdilution, RPMI 1640, OD600 growth, MIC at 50% inhibition; settings: F2016F024, 24 h, read-out: 5-FUrd MIC (µg/mL)
T8 construct: F2016f024
Experimental: as §1

[9] = test system: T9, Candida albicans F2016a067; experiment: microbe, parasite or virus in culture; parameters: species or system Candida albicans strains; CLSI M27 broth microdilution, RPMI 1640, OD600 growth, MIC at 50% inhibition; settings: F2016A067, 24 h, read-out: 5-FUrd MIC (µg/mL)
T9 construct: F2016a067
Experimental: as §1

[10] = test system: T10, Candida albicans F2015f019; experiment: microbe, parasite or virus in culture; parameters: species or system Candida albicans strains; CLSI M27 broth microdilution, RPMI 1640, OD600 growth, MIC at 50% inhibition; settings: F2015F019, 24 h, read-out: 5-FUrd MIC (µg/mL)
T10 construct: F2015f019
Experimental: as §1

[11] = test system: T11, Candida albicans ATCC90028; experiment: microbe, parasite or virus in culture; parameters: species or system Candida albicans strains; CLSI M27 broth microdilution, RPMI 1640, OD600 growth, MIC at 50% inhibition; settings: ATCC90028, 24 h, read-out: 5-FUrd MIC (µg/mL)
T11 construct: ATCC 90028
Experimental: as §1

[12] = test system: T12, Candida albicans F2016g048; experiment: microbe, parasite or virus in culture; parameters: species or system Candida albicans strains; CLSI M27 broth microdilution, RPMI 1640, OD600 growth, MIC at 50% inhibition; settings: F2016G048, 24 h, read-out: 5-FUrd MIC (µg/mL)
T12 construct: F2016g048
Experimental: as §1

[13] = biological target: T13, hTMPK (Homo sapiens, UniProt P23919); experiment: NADH-coupled assay (pyruvate kinase / lactate dehydrogenase); assay type: biochemical; settings: 2 mM ATP, 100 mM Tris-HCl, 100 mM KCl, 10 mM MgCl2
T13 construct: gene DTYMK; pGEX-2T in E. coli BL21; N-terminal GST cut by thrombin
T13 sequence (P23919 1-212): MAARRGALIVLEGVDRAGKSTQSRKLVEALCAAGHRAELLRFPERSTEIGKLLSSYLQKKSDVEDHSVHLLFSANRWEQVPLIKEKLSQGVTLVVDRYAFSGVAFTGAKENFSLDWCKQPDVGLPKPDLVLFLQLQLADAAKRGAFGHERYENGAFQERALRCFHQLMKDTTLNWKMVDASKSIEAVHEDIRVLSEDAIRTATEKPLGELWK

[14] = biological target: T14, CaTMPK (Candida albicans, UniProt Q59TV7); experiment: as above; assay type: biochemical; settings: 2 mM ATP, 100 mM Tris-HCl, 100 mM KCl, 10 mM MgCl2
T14 construct: gene CAALFM_C111790WA; pGEX-2T in E. coli BL21; N-terminal GST cut by thrombin; CTG codon changed to TCG to keep native Ser68; synthetic gene GenScript #5001191-1
T14 sequence (Q59TV7 1-224 limits assumed): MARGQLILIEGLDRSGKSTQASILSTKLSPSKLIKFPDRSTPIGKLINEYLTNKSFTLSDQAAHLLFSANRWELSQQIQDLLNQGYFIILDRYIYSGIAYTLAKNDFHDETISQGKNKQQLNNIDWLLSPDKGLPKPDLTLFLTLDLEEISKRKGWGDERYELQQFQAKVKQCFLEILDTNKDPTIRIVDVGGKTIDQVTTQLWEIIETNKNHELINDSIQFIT

Row | SMILES | MIC [1] [µg/mL] | MIC [2] [µg/mL] | MIC [3] [µg/mL] | MIC [4] [µg/mL] | MIC [5] [µg/mL] | MIC [6] [µg/mL] | MIC [7] [µg/mL] | MIC [8] [µg/mL] | MIC [9] [µg/mL] | MIC [10] [µg/mL] | MIC [11] [µg/mL] | MIC [12] [µg/mL] | Km [13] | Km [14]
1 | O=c1[nH]c(=O)n([C@@H]2O[C@H](CO)[C@@H](O)[C@H]2O)cc1F [5-FUrd, 5-fluorouridine] | 0.026 ± 0.001 (≈ 0.0992 µM) | 0.028 ± 0.002 (≈ 0.107 µM) | 0.043 ± 0.001 (≈ 0.164 µM) | 0.021 ± 0.008 (≈ 0.0801 µM) | 0.076 ± 0.02 (≈ 0.29 µM) | 0.044 ± 0.003 (≈ 0.168 µM) | 0.021 ± 0.001 (≈ 0.0801 µM) | 0.031 ± 0.003 (≈ 0.118 µM) | 0.049 ± 0.001 (≈ 0.187 µM) | 0.036 ± 0.008 (≈ 0.137 µM) | 0.03 ± 0.011 (≈ 0.114 µM) | 0.063 ± 0.012 (≈ 0.24 µM) | – | –
2 | O=c1ccn([C@H]2C[C@H](O)[C@@H](COP(=O)(O)O)O2)c(=O)[nH]1 [dUMP] | – | – | – | – | – | – | – | – | – | – | – | – | Steady-state kinetics of CaTMPK and hTMPK using different dUMP concentrations | Steady-state kinetics of CaTMPK and hTMPK using different dUMP concentrations
